In patent publication US8268805B2, “Use of ceramides for depigmenting the skin” (L'Oreal, priority 2005, dated 2012):

Legend:
[1] = test system: coculture of keratinocytes and melanocytes; test: Modulatory effect on melanogenesis: inhibition of melanin synthesis (thiouracil/leucine incorporation ratio); assay type: cell-based; conditions: ratio of thiouracil to leucine incorporation related to 100% of control, read-out: IC50 (concentration for which 50% of the melanin synthesis is inhibited)
Experimental: The modulatory effect on melanogenesis of the compounds tested was measured according to the method described in patent FR-A-2734825, and also in the article by R. Schmidt, P. Krien and M. Regnier, Anal. Biochem., 235(2), 113-18, 1996. This test is carried out on a coculture of keratinocytes and melanocytes.
For the compound tested, the inhibitory activity on melanin synthesis was determined by estimating the ratio of thiouracil incorporation to leucine incorporation, related to 100% of the control (the control corresponds to the test carried out without compound to be tested). The IC50 values (concentration for which 50% of the melanin synthesis is inhibited) were determined.
The test was also carried out with arbutin and lucinol (2-butylbenzene-1,3-diol), which are known depigmenting compounds.

[2] = test system: tyrosinase activity of the melanocytes of human skin; conditions: cited from earlier work

Row | SMILES | IC50 [1] [nM] | effect on the tyrosinase activity of the melanocytes of human skin [2]
1 | CCCCCCCCCCCCCCCC(O)C(CO)NC(=O)C(O)CCCCCCCCCCCCCC (centres unmarked) [N-2-hydroxypalmitoyldihydrosphingosine] | 100 | –
2 | CCCCCCCCCCCCC/C=C/[C@@H](O)[C@H](CO)NC(C)=O [N-acetyl-D-erythrosphingosine] | – | has an effect
3 | CCCCCCCCCCCCC/C=C/[C@@H](O)[C@@H](N)COP(=O)(O)O [sphingosine-1-phosphate] | – | no effect

Second part, led by results:

Row | IC50 [1] [nM] | SMILES | effect on the tyrosinase activity of the melanocytes of human skin [2]
4 | 209000 | OC[C@H]1O[C@@H](Oc2ccc(O)cc2)[C@H](O)[C@@H](O)[C@@H]1O [Arbutin] | –
5 | 100 | CCCCCCCC/C=C\CCCCCCCC(=O)NC(CO)C(O)CCCCCCCCCCCCCCC (centres unmarked) [N-oleoyldihydrosphingosine] | –
